Laboratory results: patent US11178868B2, “Alkynyl-substituted 3-phenylpyrrolidine-2,4-diones and use thereof as herbicides” (Bayer CropScience Aktiengesellschaft, priority 2015, dated 2021)

How the values were obtained:
Assay type in all cases: in vivo
Echinochloa crus-galli [1] = assay: Post-emergence herbicidal effect; details: assessed visually after about 3 weeks
Experimental: (§1) Seeds of monocotyledonous and dicotyledonous weed and crop plants are laid out in sandy loam in wood-fibre pots, covered with soil and cultivated in a greenhouse under good growth conditions. 2 to 3 weeks after sowing, the test plants are treated at the one-leaf stage. The compounds according to the invention, formulated in the form of wettable powders (WP) or as emulsion concentrates (EC), are then sprayed as aqueous suspension or emulsion at a water application rate of 600 to 800 I/ha (converted) with the addition of 0.2% of wetting agent onto the green parts of the plants. After the test plants have been left to stand in the greenhouse under optimal growth conditions for about 3 weeks, the action of the preparations is assessed visually in comparison to untreated controls (herbicidal action in percent (%): 100% activity=the plants have died, 0% activity=like control plants).

Lolium multiflorum [2] = assay: Pre-emergence herbicidal effect; details: scored visually after 3 weeks
Text: (§2) Seeds of monocotyledonous and dicotyledonous weed plants and crop plants are laid out in wood-fibre pots in sandy loam and covered with soil. The compounds according to the invention formulated in the form of wettable powders (WP) or as emulsion concentrates (EC) are then applied as aqueous suspension or emulsion at a water application rate of 600 to 800 I/ha (converted) with the addition of 0.2% wetting agent to the surface of the covering soil. After the treatment, the pots are placed in a greenhouse and kept under good growth conditions for the trial plants. The damage to the test plants is scored visually after a test period of 3 weeks by comparison with untreated controls (herbicidal activity in percent (%): 100% activity=the plants have died, 0% activity=like control plants).

Alopecurus myosuroides [3] = assay: Pre-emergence herbicidal effect; details: scored visually after 3 weeks
Text: as §2

Echinochloa crus-galli [4] = assay: Pre-emergence herbicidal effect; details: scored visually after 3 weeks
Text: as §2

Setaria viridis [5] = assay: Pre-emergence herbicidal effect; details: scored visually after 3 weeks
Text: as §2

Avena fatua [6] = assay: Pre-emergence herbicidal effect; details: scored visually after 3 weeks
Text: as §2

Lolium multiflorum [7] = assay: Post-emergence herbicidal effect; details: assessed visually after about 3 weeks
Experimental: as §1

Alopecurus myosuroides [8] = assay: Post-emergence herbicidal effect; details: assessed visually after about 3 weeks
Experimental: as §1

Setaria viridis [9] = assay: Post-emergence herbicidal effect; details: assessed visually after about 3 weeks
Experimental: as §1

Avena fatua [10] = assay: Post-emergence herbicidal effect; details: assessed visually after about 3 weeks
Experimental: as §1

| Compound | Herbicidal effect against [%] ECHCG (Echinochloa crus-galli [1]; 80 g a.i./ha) | Herbicidal effect against [%] LOLMU (Lolium multiflorum [2]; 80 g a.i./ha) | Herbicidal effect against [%] LOLMU (Lolium multiflorum [2]; 320 g a.i./ha) | Herbicidal effect against [%] ALOMY (Alopecurus myosuroides [3]; 80 g a.i./ha) | Herbicidal effect against [%] ALOMY (Alopecurus myosuroides [3]; 320 g a.i./ha) | Herbicidal effect against [%] ECHCG (Echinochloa crus-galli [4]; 80 g a.i./ha) | Herbicidal effect against [%] ECHCG (Echinochloa crus-galli [4]; 320 g a.i./ha) | Herbicidal effect against [%] SETVI (Setaria viridis [5]; 80 g a.i./ha) | Herbicidal effect against [%] SETVI (Setaria viridis [5]; 320 g a.i./ha) | Herbicidal effect against [%] AVEFA (Avena fatua [6]; 320 g a.i./ha) | Herbicidal effect against [%] LOLMU (Lolium multiflorum [7]; 20 g a.i./ha) | Herbicidal effect against [%] LOLMU (Lolium multiflorum [7]; 80 g a.i./ha) | Herbicidal effect against [%] ALOMY (Alopecurus myosuroides [8]; 20 g a.i./ha) | Herbicidal effect against [%] ALOMY (Alopecurus myosuroides [8]; 80 g a.i./ha) | Herbicidal effect against [%] ECHCG (Echinochloa crus-galli [1]; 20 g a.i./ha) | Herbicidal effect against [%] SETVI (Setaria viridis [9]; 20 g a.i./ha) | Herbicidal effect against [%] SETVI (Setaria viridis [9]; 80 g a.i./ha) | Herbicidal effect against [%] AVEFA (Avena fatua [10]; 20 g a.i./ha) | Herbicidal effect against [%] AVEFA (Avena fatua [10]; 80 g a.i./ha) | Herbicidal effect against [%] AVEFA (Avena fatua [6]; 80 g a.i./ha) |
| --- | --- | --- | --- | --- | --- | --- | --- | --- | --- | --- | --- | --- | --- | --- | --- | --- | --- | --- | --- | --- |
| CC#Cc1cc(CC)c(C2=C(OC(=O)C(C)C)C3(CCCC(OCC)C3)NC2=O)c(CC)c1 (centres unmarked) [Example P3] | 90% | 100% | 100% | 90% | 100% | 100% | 100% | 100% | 100% | 80% | – | – | – | – | – | – | – | – | – | – |
| CC#Cc1ccc(C2=C(O)C3(CCCC(OCCOC)C3)NC2=O)c(CC)c1 (centres unmarked) [Example D7] | 100% | 100% | 100% | 100% | 100% | 100% | 100% | 100% | 100% | 100% | 100% | 100% | 100% | 100% | 100% | 100% | 100% | 100% | 100% | – |
| C#Cc1cc(C)c(C2=C(OC(=O)C(C)C)C3(CCCC(OCCCC)C3)NC2=O)c(C)c1 (centres unmarked) [Example P6] | – | – | 100% | – | 80% | – | 90% | – | 100% | – | – | – | – | – | – | – | – | – | – | – |
| C#Cc1cc(C)c(C2=C(OC(=O)OCC)C3(CCCC(OCCCC)C3)NC2=O)c(C)c1 (centres unmarked) [Example P5] | – | 90% | 100% | 80% | 100% | 90% | 100% | 90% | 100% | 80% | – | – | – | – | – | – | – | – | – | – |
| C#Cc1cc(CC)c(C2=C(O)C3(CCCC(OCCOC)C3)NC2=O)c(CC)c1 (centres unmarked) [Example D10] | 90% | – | – | 90% | 100% | 100% | 100% | 100% | 100% | 100% | – | – | 90% | 90% | 90% | – | – | 80% | 90% | 90% |
| CC#Cc1cc(C)c(C2=C(O)C3(CCCC(OCC)C3)NC2=O)c(C)c1 (centres unmarked) [Example D2] | 100% | 100% | 100% | 100% | 100% | 100% | 100% | 100% | 100% | 100% | – | 100% | – | 90% | 90% | – | 90% | – | – | 80% |
